The record followed here is BindingDB's records for doi:10.1021/bi00152a045 (Mcmaster University, 1992).

For this assay, the target named is Protein kinase C alpha type (Rattus norvegicus, UniProt P05696). Nature of the assay: Mixed Micelle Assay. Conditions: pH 7.5; 30 °C. From the text: The triton X-100 assay previously described by Bell and co-workers were used to measure enzyme activity.

By IC50 is commonly meant the concentration that gives 50% inhibition. A higher IC50 goes with weaker potency in that assay. In turn, `CC(C)CCCC(C)C1CCC2C3CC=C4CC(C(=O)NCCN(C)C)CCC4(C)C3CCC12C` (stereo not drawn) [Amphiphile, III] came in with an IC50 of 258 µM.

Molecule `CC(C)CCCC(C)C1CCC2C3CC=C4CC(C(=O)NCC[N+](C)(C)C)CCC4(C)C3CCC12C` (stereo not drawn) [Amphiphile, IV] gave an IC50 of 12 µM. The result for `CC(C)CCCC(N)C1CCN2C3OC=C4CC(OC(=O)CCC(=O)NCC[N+](C)(C)C)CCC4(C)C3CCC12C` (stereo not drawn) [Amphiphile, IX] reads 59 µM; that for `CC(C)CCCC(N)C1CCN2C3OC=C4CC(OC(=O)CCC(=O)NCCN(C)C)CCC4(C)C3CCC12C` (stereo not drawn) [Amphiphile, VIII], 191 µM; that for `CC(C)CCCC(C)C1CCC2C3CC=C4CC(C(=O)NCCN)CCC4(C)C3CCC12C` (stereo not drawn) [Amphiphile, VII], 246 µM.

The molecule `CC(C)CCCC(C)C1CCC2C3CC=C4CC(C(=O)OC(CN(C)C)C[N+](C)(C)C)CCC4(C)C3CCC12C` (stereo not drawn) [Amphiphile, VI] gave an IC50 of 11 µM. For the molecule `CC(C)CCCC(C)C1CCC2C3CC=C4CC(C(=O)OC(CN(C)C)CN(C)C)CCC4(C)C3CCC12C` (stereo not drawn) [Amphiphile, V], inhibition was half-maximal at 643 µM (IC50).

For the molecule `CC(C)CCCC(N)C1CCN2C3OC=C4CC(OC(=O)CCC(=O)OCCN(C)CC[N+](C)(C)C)CCC4(C)C3CCC12C` (stereo not drawn) [Amphiphile, XIII], the IC50 was 20 µM. Then `CC(C)CCCC(N)C1CCN2C3OC=C4CC(OC(=O)CCC(=O)OCCN(C)CCN(C)C)CCC4(C)C3CCC12C` (stereo not drawn) [Amphiphile, XII], with 164 µM; and `CC(C)CCCC(N)C1CCN2C3OC=C4CC(OC(=O)CCC(=O)OC(CN(C)C)C[N+](C)(C)C)CCC4(C)C3CCC12C` (stereo not drawn) [Amphiphile, XI], with 15 µM. The result for `CCCCCCCCCCCCCCCCCCCCCCCC(=O)OC(CN(C)C)C[N+](C)(C)C` (stereo not drawn) [Amphiphile, XVII] reads 40 µM; that for `CCCCCCCCCCCCCCCCCCCCCC(=O)OC(CN(C)C)C[N+](C)(C)C` (stereo not drawn) [Amphiphile, XVI], 26 µM; that for `CC(C)CCCC(N)C1CCN2C3OC=C4CC(OC(=O)CCC(=O)OC(CN(C)C)CN(C)C)CCC4(C)C3CCC12C` (stereo not drawn) [Amphiphile, X], 408 µM.
